How the values were obtained:
[1] = target: Cyclin-dependent kinase 2/cyclin A (Homo sapiens, UniProt P24941)
Description: Inhibition of Cyclin A-cyclin-dependent kinase 2

[2] = Inhibition of Glycogen synthase kinase-3 beta

IC50 [1] [nM]	IC50 [2] [nM]	SMILES
4500	–	C=CCONC(=O)c1nn(-c2ccc(OC)cc2)c2c1CCc1[nH]ncc1-2
1200	–	CCCCNS(=O)(=O)n1nc(C(=O)O)c2c1-c1c[nH]nc1CC2
30	–	CS(=O)(=O)c1ccc(-n2nc(C(N)=O)c3c2-c2cn[nH]c2CC3)cc1
87	> 10000	CC(C)CC1Cc2c[nH]nc2-c2c[nH]nc21 (configuration not stated)
610	–	CCCCNS(=O)(=O)n1nc(C(=O)NC)c2ccc3[nH]ncc3c21
20	–	CNS(=O)(=O)c1ccc(-n2nc(C(N)=O)c3ccc4[nH]ncc4c32)cc1
> 10000	–	COc1ccc(-n2nc(N)c3ccc4[nH]ncc4c32)cc1
510	–	NC(=O)c1nn(-c2ccc(OC(F)(F)F)cc2)c2c1CCc1[nH]ncc1-2
250	–	NC(=O)c1nn(-c2ccc(C3=NCC=N3)cc2)c2c1CCc1n[nH]cc1-2
–	460	Cc1ccc(-n2nc(C(N)=O)c3c2-c2c[nH]nc2CC3)cc1
75	–	NC(=O)c1nn(-c2ccc(C3=NCC=N3)cc2)c2c1ccc1[nH]ncc12
600	–	CCCCNS(=O)(=O)n1nc(C(=O)NC)c2c1-c1c[nH]nc1CC2
210	–	COc1ccc(-n2nc(C(=O)NN)c3ccc4[nH]ncc4c32)cc1
160	–	NC(=O)c1nn(-c2ccc(Cl)cc2)c2c1CCc1[nH]ncc1-2
1150	–	NC(=O)c1nn(CCO)c2c1CCc1[nH]ncc1-2
40	–	CNS(=O)(=O)c1ccc(-n2nc(C(N)=O)c3c2-c2cn[nH]c2CC3)cc1
8500	–	CCOC(=O)c1nn(-c2ccc(C)cc2)c2c1CCc1[nH]ncc1-2
1750	–	COc1ccc(-n2nc(C#N)c3ccc4[nH]ncc4c32)cc1

IC50 [1] [nM]	IC50 [2] [nM]	SMILES
2	–	CCCCNS(=O)(=O)n1nc(C(N)=O)c2ccc3[nH]ncc3c21
2100	–	COc1ccc(-n2nc(C(=O)NN)c3c2-c2cn[nH]c2CC3)cc1
8100	–	CCOC(=O)c1nn(-c2ccc(OC)cc2)c2c1CCc1[nH]ncc1-2
190	–	N#Cc1ccc(-n2nc(C(N)=O)c3c2-c2cn[nH]c2CC3)cc1
2100	–	COc1ccc(-n2nc(C(=O)O)c3c2-c2cn[nH]c2CC3)cc1
210	–	CCCCNS(=O)(=O)n1nc(C(N)=O)c2c1-c1c[nH]nc1CC2
200	–	C=CCONC(=O)c1nn(S(=O)(=O)NCCCC)c2c1ccc1[nH]ncc12
10000	–	CCCCNS(=O)(=O)c1ccc(-n2nc(C(=O)OCC)c3c2-c2cn[nH]c2CC3)cc1
> 10000	–	CN1CCN(S(=O)(=O)c2ccc(-n3nc(C(N)=O)c4c3-c3cn[nH]c3CC4)cc2)CC1
150	–	CN1CCN(S(=O)(=O)c2ccc(-n3nc(C(N)=O)c4ccc5[nH]ncc5c43)cc2)CC1
–	23	Cc1ccc(-n2nc(C(N)=O)c3ccc4[nH]ncc4c32)cc1
210	–	COc1ccc(-n2nc(C(=O)O)c3ccc4[nH]ncc4c32)cc1
2850	–	C=CCONC(=O)c1nn(S(=O)(=O)NCCCC)c2c1CCc1n[nH]cc1-2
7500	–	CCOC(=O)c1nn(-c2ccc(OC)cc2)c2c1ccc1[nH]ncc12
80	–	NC(=O)c1nn(-c2ccc(C(F)(F)F)cc2)c2c1CCc1[nH]ncc1-2
1600	–	NC(=O)c1nn(-c2cccnc2)c2c1CCc1[nH]ncc1-2
900	–	CC(=O)c1nn(-c2ccc(C)cc2)c2c1CCc1[nH]ncc1-2
9	–	Cc1cccc(-n2nc(C(N)=O)c3ccc4[nH]ncc4c32)c1
